Assay results: patent US20030134859A1 (SANKYO COMPANY, LIMITED, priority 2000, published 2003)
Structures can show the parent of a compound that is named as a salt.

Legend:
human PPAR γ 2 [1] = target: T1, human PPAR γ 2 (Homo sapiens, UniProt P37231); assay: PPAR γ transcriptional activity, luciferase reporter, test compound alone; format: cell-based; conditions: concentration indicating Emax/2, MG63 cells transfected with pSG5-hPPARg and pGV-P2-PPRE, 24 hr
T1 construct: expressed in transfected cells; host or cells: human osteosarcoma MG63, transiently co-transfected with pSG5-hPPARg and the reporter pGV-P2-PPRE
T1 sequence (P37231 1-505): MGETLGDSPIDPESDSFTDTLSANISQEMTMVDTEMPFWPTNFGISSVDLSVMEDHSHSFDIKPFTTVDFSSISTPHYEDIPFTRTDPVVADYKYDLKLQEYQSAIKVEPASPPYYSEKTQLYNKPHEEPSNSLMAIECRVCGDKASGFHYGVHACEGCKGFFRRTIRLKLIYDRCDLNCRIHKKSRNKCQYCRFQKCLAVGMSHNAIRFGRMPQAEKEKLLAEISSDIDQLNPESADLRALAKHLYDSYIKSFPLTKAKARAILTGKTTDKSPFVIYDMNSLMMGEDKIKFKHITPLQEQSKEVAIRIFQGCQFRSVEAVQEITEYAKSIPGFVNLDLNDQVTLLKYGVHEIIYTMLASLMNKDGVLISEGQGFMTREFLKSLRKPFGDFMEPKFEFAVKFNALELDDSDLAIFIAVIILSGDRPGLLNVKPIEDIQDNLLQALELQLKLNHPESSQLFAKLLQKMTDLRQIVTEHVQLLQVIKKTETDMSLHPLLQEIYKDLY
Protocol: The primers of the polymerase chain reaction (hereinafter “PCR”) were designed according to the gene sequence of human PPAR γ 2 (GenBANK accession No. D83233). In order to insert the genes into the BamHI site of the plasmid pSG5 ([…] CLONING SYSTEMS), Bgl II sites were added upstream and downstream of the genes encoding human PPAR γ 2 protein. For this, 2 kinds of polynucleotides shown in the sequence numbers 1 and 2 in the sequence table described below (hereinafter “S1” and “AS1”, respectively) were used as PCR primers.
In order to determine transcriptional activity via PPAR γ, 2 kinds of polynucleotides represented in sequence numbers 3 and 4 in the sequence table described below (hereinafter “S2” and “AS2”, respectively) were used for construction of the reporter plasmid having PPAR responsive element. The DNA fragment inserted was designed based on the gene sequence in the promoter region of rat acylCo-A oxidase (J. D. Tugwood, EMBO J., 11 (2), pp433-439 (1992)). For insertion of the DNA fragment into the reporter plasmid pGV-P2 (TOYO INK MFG CO., LTD), a NheI site and an XhoI site were added to the S2 and AS2, respectively.
Using cDNA library (Clontech) derived from human adipose tissue as a template, DNA oligomers S1 and AS1 that were synthesized in the procedure 1 as primers and Ex-Taq™ (TAKARA BIO INC.) as a thermostable DNA polymerase-PCR was carried out. As a result of the PCR, the c.a. 1500 bps DNA fragments were amplified. Each cycle consisted of incubation at 94° C. for 1 min for denaturation of the template, then at 55° C. for 30 sec for annealing of DNA oligomers the PCR primer, and then at 72° C. for 30 sec for extension of the chain. The obtained DNA fragments with approximately 1500 base pairs were digested at the Bgl II sites and were inserted into BamHI sites of pSG5. Thus a human PPAR γ expression plasmid named pSG5-hPPAR g was obtained. The nucleotide sequence of the inserted DNA fragment was confirmed to be identical sequence to the human PPAR γ 2 reported by the dideoxy method.
Vector pGV-P2 digestion products was prepared by digestion using the restriction enzymes, NheI and XhoI, and purified by 1.0% agarose-gel electrophoresis. The DNA oligomers, S2 and AS2 obtained in Procedure 2, were mixed together and were incubated in a hot bath at 94° C. for 1 min. After the annealing was partially broken, they were further incubated at 25° C. for 1 hr. Thus double-stranded DNA with annealing of S2 and AS2 was formed. Then, the terminus of the double-stranded DNA with annealing of S2 and AS2 was phosphorylated with DNA polynucleotide kinase (TOYOBO CO., LTD). After that, it was ligated to the pGV-P2 digestion products which were prepared previously using the NheI site and XhoI site. Thus the reporter plasmid pGV-P2-PPRE was obtained.
Using the plasmid obtained by the procedures 3 and 4, transformation of Escherichia coli HB-101 strain was carried out by conventional methods. HB-101 strain having the plasmid was incubated in L-broth medium (containing 10 g of trypton (Difco), 5 g of yeast extract (Difco), 5 g of sodium chloride in 1 L of aqueous solution) containing 100 μg/ml of ampicillin at 37° C. for 17 hrs. Then, each plasmid was purified by the alkaline-SDS method and employed for the gene transfection to mammalian cells. After mixing the pSG5-hPPARg, PGV-P2-PPRE and LipofectAMINE reagent (GIBCO BRL), the human osteosarcoma MG63 was transiently transfected. Then the cells were recovered. The recovered cells were plated on a 96-well plate so as to be 30,000 cells/well and cultured in a CO2 incubator (NAPCO) at 37° C. for 24 hr under the condition of 5% CO2, 95%-RH.
Various concentrations of the test compound alone were added to culturing medium of the cells prepared in the Procedure 5. After 24 hr of culturing, LT2.0 (TOYO INK MFG CO., LTD), a luciferase substrate, was added to the medium free culture plate. […]

human PPAR γ 2 [2] = target: T1, human PPAR γ 2; assay: Inhibitory activity against PPAR γ transcription in the presence of agonist compound A, luciferase reporter; format: cell-based; conditions: in the presence of 10 nM compound A (agonist); MG63 cells transfected with pSG5-hPPARg and pGV-P2-PPRE; 24 hr

Row | Structure (SMILES) | EC50 (human PPAR γ 2 [1]) | IC50 (human PPAR γ 2 [2])
1 | Cc1ccc(NC(=O)c2cc([N+](=O)[O-])ccc2Cl)cc1 [Example 1, N-(4-Methylphenyl)-(2-chloro-5-nitrophenyl)carboxamide] | 0.22 µM | 0.033 µM
2 | O=C(Nc1ccc(-c2ccccc2)cc1)c1cc([N+](=O)[O-])ccc1Cl [Example 2, N-(4-Phenylphenyl)-(2-chloro-5-nitrophenyl)carboxamide] | 0.84 µM | 0.0019 µM
3 | Cc1cnc(NC(=O)c2cc([N+](=O)[O-])ccc2Cl)s1 [Example 4, N-(5-Methylthiazol-2-yl)-(2-chloro-5-nitrophenyl)carboxamide] | 0.015 µM | 0.12 µM
4 | O=C(Nc1cccc(-c2ccccc2)c1)c1cc([N+](=O)[O-])ccc1Cl [Example 5, N-(3-Phenylphenyl)-(2-chloro-5-nitrophenyl)carboxamide] | 0.4 µM | 0.082 µM
5 | COc1ccc(NC(=O)c2cc([N+](=O)[O-])ccc2Cl)cc1-c1ccccc1 [Example 6, N-(4-Methoxy-3-phenyl)phenyl-(2-chloro-5-nitrophenyl)carboxamide] | 0.034 µM | 0.16 µM
6 | O=C(Nc1ccccc1-c1ccccc1)c1cc([N+](=O)[O-])ccc1Cl [Example 7, N-(2-Phenylphenyl)-(2-chloro-5-nitrophenyl)carboxamide] | 0.27 µM | 
7 | O=C(Nc1ccc(-c2ccccn2)cc1)c1cc([N+](=O)[O-])ccc1Cl [Example 8, N-[4-(2-Pyridyl)phenyl]-(2-chloro-5-nitrophenyl)carboxamide] | 0.26 µM | 0.0059 µM
8 | CCCCCc1ccc(NC(=O)c2cc([N+](=O)[O-])ccc2Cl)cc1 [Example 16, N-(4-Pentylphenyl)-(2-chloro-5-nitrophenyl)carboxamide] | 0.034 µM | 0.0075 µM
9 | CCOC(=O)c1ccc(NC(=O)c2cc([N+](=O)[O-])ccc2Cl)cc1 [Example 26, N-(4-Ethoxycarbonylphenyl)-(2-chloro-5-nitrophenyl)carboxamide] | 0.0021 µM | 0.0063 µM
10 | CC(C)(C)c1cc(NC(=O)c2cc([N+](=O)[O-])ccc2Cl)cc(C(C)(C)C)c1O [Example 29, N-(3,5-Di-t-butyl-4-hydroxyphenyl)-(2-chloro-5-nitrophenyl)carboxamide] | 0.0044 µM | 0.23 µM
11 | O=C(Nc1cccc(NS(=O)(=O)c2ccccc2)c1)c1cc([N+](=O)[O-])ccc1Cl [Example 30, N-(3-Benzensulfonylaminophenyl)-(2-chloro-5-nitrophenyl)carboxamide] | 0.0019 µM | 0.012 µM
12 | O=C(Nc1nc(-c2ccccc2)cs1)c1cc([N+](=O)[O-])ccc1Cl [Example 35, N-(4-Phenylthiazol-2-yl)-(2-chloro-5-nitrophenyl)carboxamide] | 0.025 µM | 0.03 µM
13 | O=C(Nc1nc(-c2cccnc2)cs1)c1cc([N+](=O)[O-])ccc1Cl [Example 37, N-[4-(3-Pyridyl)thiazol-2-yl)-(2-chloro-5-nitrophenyl)carboxamide] | 0.51 µM | 0.015 µM
14 | O=C(Nc1nc(-c2ccccn2)cs1)c1cc([N+](=O)[O-])ccc1Cl [Example 38, N-[4-(2-Pyridyl)thiazol-2-yl)-(2-chloro-5-nitrophenyl)carboxamide] | 0.25 µM | 0.045 µM
15 | Cc1ccccc1-c1csc(NC(=O)c2cc([N+](=O)[O-])ccc2Cl)n1 [Example 39, N-[4-(2-Methylphenyl)thiazol-2-yl]-(2-chloro-5-nitrophenyl)carboxamide] | 0.039 µM | 0.04 µM
16 | O=C(Nc1nc(-c2cccc3ccccc23)cs1)c1cc([N+](=O)[O-])ccc1Cl [Example 41, N-[4-(1-Naphthyl)thiazol-2-yl]-(2-chloro-5-nitrophenyl)carboxamide] | 0.011 µM | 0.077 µM
17 | Cc1ccc(-c2nc(NC(=O)c3cc([N+](=O)[O-])ccc3Cl)sc2C)cc1Cl [Example 46, N-[4-(3-Chloro-4-methylphenyl)-5-methylthiazol-2-yl]-(2-chloro-5-nitrophenyl)carboxamide] | 0.81 µM | 0.054 µM
18 | Cc1nc(NC(=O)c2cc([N+](=O)[O-])ccc2Cl)sc1C [Example 47] | 0.42 µM | 0.038 µM
19 | Cc1cccc(NC(=O)c2cc([N+](=O)[O-])ccc2Cl)n1 [Example 51, N-(6-Methylpyridin-2-yl)-(2-chloro-5-nitrophenyl)carboxamide] | 0.0066 µM | 0.12 µM
20 | Cc1ccc(NC(=O)c2cc([N+](=O)[O-])ccc2Cl)nc1 [Example 52, N-(5-Methylpyridin-2-yl)-(2-chloro-5-nitrophenyl)carboxamide] | 0.0056 µM | 0.21 µM
21 | O=C(Nc1ccc2c3c(cccc13)CC2)c1cc([N+](=O)[O-])ccc1Cl [Example 54, N-(Acenaphthen-5-yl)-(2-chloro-5-nitrophenyl)carboxamide] | 0.0047 µM | 0.34 µM
22 | O=C(Nc1cccc2cccnc12)c1cc([N+](=O)[O-])ccc1Cl [Example 57, N-(8-Quinolinyl)-(2-chloro-5-nitrophenyl)carboxamide] | 0.26 µM | 
23 | Nc1ccc(NC(=O)c2cc([N+](=O)[O-])ccc2Cl)cc1 [Example 58, N-(4-Aminophenyl)-(2-chloro-5-nitrophenyl)carboxamide mono-hydrochloride] | 0.02 µM | 0.0028 µM
24 | COC(=O)c1sccc1NC(=O)c1cc([N+](=O)[O-])ccc1Cl [Example 66, N-(2-Methoxycarbonylthiophen-3-yl)-(2-chloro-5-nitrophenyl)carboxamide] | 0.12 µM | 
25 | O=C(Nc1c(Cl)ncnc1Cl)c1cc([N+](=O)[O-])ccc1Cl [Example 81, N-(4,6-Dichloropyrimidin-5-yl)-(2-chloro-5-nitrophenyl)carboxamide] | 0.76 µM | 0.023 µM
26 | Cn1c(NC(=O)c2cc([N+](=O)[O-])ccc2Cl)nc2ccccc21 [Example 82, N-(1-Methylbenzimidazol-2-yl)-(2-chloro-5-nitrophenyl)carboxamide] | 0.26 µM | 0.4 µM
27 | O=C(Nc1nncs1)c1cc([N+](=O)[O-])ccc1Cl [Example 85, N-(1,3,4-Thiadiazol-2-yl)-(2-chloro-5-nitrophenyl)carboxamide] | 0.028 µM | 0.091 µM
28 | O=C(Nc1cccc2nsnc12)c1cc([N+](=O)[O-])ccc1Cl [Example 86, N-(2,1,3-Benzothiazol-4-yl)-(2-chloro-5-nitrophenyl)carboxamide] | 0.011 µM | 0.71 µM
